According to PubChem BioAssay AID220 (DTP/NCI, 2004):
Several values for one entry are separate records, joined by “and”; a condition that tells them apart may be missing. Equal entries are not always repeated. Inconclusive results are not listed.

System: CD8F1 mice, subcutaneous mammary adenocarcinoma, T/C%
Assay: NCI In Vivo Anticancer Drug Screen. Data for tumor model Mammary Adenocarcinoma CD8F1 (subcutaneous) in CD8F1
Settings: higher = larger tumour
How it was run: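 Tumor-bearing mice, transplantable model; readout survival or tumor size; value = treated (T) / vehicle control (C).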

[1] = endpoint: median tumor weight (est.), dose: 12.5 mg/kg/injection, schedule: Q07DX005 (ip), vehicle: saline with Tween-80
[2] = endpoint: median tumor weight (est.), dose: 12.5 mg/kg/injection, schedule: Q07DX005 (ip), vehicle: saline
[3] = endpoint: median tumor weight (est.), dose: 25.0 mg/kg/injection, schedule: Q07DX005 (ip), vehicle: saline with Tween-80
[4] = endpoint: median tumor weight (est.), dose: 50.0 mg/kg/injection, schedule: Q07DX005 (ip), vehicle: saline with Tween-80
[5] = endpoint: median tumor weight (est.), dose: 50.0 mg/kg/injection, schedule: Q07DX005 (ip), vehicle: saline
[6] = endpoint: median tumor weight change, dose: 4.0 mg/kg/injection, schedule: Q01DX001 (ip), vehicle: saline
[7] = endpoint: median tumor weight change, dose: 125.0 mg/kg/injection, schedule: Q01DX001 (ip), vehicle: saline with Tween-80
[8] = endpoint: median tumor weight change, dose: 250.0 mg/kg/injection, schedule: Q01DX001 (ip), vehicle: saline with Tween-80
[9] = endpoint: median tumor weight change, dose: 500.0 mg/kg/injection, schedule: Q01DX001 (ip), vehicle: saline with Tween-80
[10] = endpoint: median tumor weight change, dose: 125.0 mg/kg/injection, schedule: Q01DX001 (ip), vehicle: saline
[11] = endpoint: median tumor weight change, dose: 250.0 mg/kg/injection, schedule: Q01DX001 (ip), vehicle: saline
[12] = endpoint: median tumor weight (est.), dose: 100.0 mg/kg/injection, schedule: Q07DX005 (ip), vehicle: saline with Tween-80
[13] = endpoint: median tumor weight (est.), dose: 2.67 mg/kg/injection, schedule: Q07DX005 (ip), vehicle: water
[14] = endpoint: median tumor weight (est.), dose: 4.0 mg/kg/injection, schedule: Q07DX005 (ip), vehicle: water

COc1cc(O)c2c(O)c3c(c4c2c1[C@]1(C4)C(C)=CCCC1(C)C)[C@H](O)[C@@]1(O)CC(=O)C(C(N)=O)=C(O)[C@@]1(O)C3=O
T/C (endpoint: median tumor weight (est.), dose: 6.25 mg/kg/injection, schedule: Q07DX005 (ip), vehicle: saline with Tween-80): 56 % of control | T/C (endpoint: median tumor weight (est.), dose: 6.25 mg/kg/injection, schedule: Q07DX005 (ip), vehicle: saline): 47 % of control | T/C [1]: 92 % of control | T/C [2]: 58 % of control | T/C [3]: 95 % of control | T/C (endpoint: median tumor weight (est.), dose: 25.0 mg/kg/injection, schedule: Q07DX005 (ip), vehicle: saline): 87 % of control | T/C [4]: 89 % of control | T/C [5]: 81 % of control | T/C (endpoint: median tumor weight (est.), dose: 100.0 mg/kg/injection, schedule: Q07DX005 (ip), vehicle: saline): 37 % of control

CC[C@]1(O)C[C@H]2CN(CCc3c([nH]c4ccccc34)[C@@](C(=O)OC)(c3cc4c(cc3OC)N(C)[C@H]3[C@@](O)(C(=O)OC)[C@H](OC(C)=O)[C@]5(CC)C=CCN6CC[C@]43[C@@H]65)C2)C1
T/C (endpoint: median tumor weight (est.), dose: 0.25 mg/kg/injection, schedule: Q07DX005 (ip), vehicle: saline): 70 % of control and 71 % of control | T/C (endpoint: median tumor weight (est.), dose: 0.5 mg/kg/injection, schedule: Q07DX005 (ip), vehicle: saline): 63 % of control and 83 % of control and 84 % of control | T/C (endpoint: median tumor weight change, dose: 1.0 mg/kg/injection, schedule: Q01DX001 (ip), vehicle: saline): 81 % of control | T/C (endpoint: median tumor weight change, dose: 2.0 mg/kg/injection, schedule: Q01DX001 (ip), vehicle: saline): 56 % of control | T/C [6]: 28 % of control

COc1cc(C(=O)N/N=C/c2cccc([N+](=O)[O-])c2)cc(OC)c1OC
T/C [7]: 94 % of control | T/C [8]: 60 % of control | T/C [9]: 108 % of control | T/C (endpoint: median tumor weight change, dose: 1000.0 mg/kg/injection, schedule: Q01DX001 (ip), vehicle: saline with Tween-80): 115 % of control | T/C (endpoint: median tumor weight change, dose: 2000.0 mg/kg/injection, schedule: Q01DX001 (ip), vehicle: saline with Tween-80): 119 % of control

CC(=O)CC(=O)CCC(=O)O
T/C [10]: 62 % of control | T/C [11]: 65 % of control

CC(C)[NH-].CC(C)[NH-].O.O.[Cl][Pt+2][Cl]
T/C (endpoint: median tumor weight (est.), dose: 6.25 mg/kg/injection, schedule: Q07DX005 (ip), vehicle: dextrose): 121 % of control | T/C (endpoint: median tumor weight (est.), dose: 12.5 mg/kg/injection, schedule: Q07DX005 (ip), vehicle: dextrose): 121 % of control | T/C (endpoint: median tumor weight (est.), dose: 25.0 mg/kg/injection, schedule: Q07DX005 (ip), vehicle: dextrose): 110 % of control | T/C (endpoint: median tumor weight (est.), dose: 50.0 mg/kg/injection, schedule: Q07DX005 (ip), vehicle: dextrose): 8 % of control

CC(Oc1ccccc1-c1ccccc1)C(=O)N(C)C (stereo unspecified)
T/C [7]: 70 % of control | T/C [8]: 89 % of control | T/C [9]: 95 % of control

CN=C(N)N/N=C(\C)c1ccc2c(c1)Cc1cc(/C(C)=N/NC(N)=NC)ccc1-2
T/C (endpoint: median tumor weight change, dose: 7.5 mg/kg/injection, schedule: Q01DX001 (ip), vehicle: saline with Tween-80): 112 % of control | T/C (endpoint: median tumor weight change, dose: 15.0 mg/kg/injection, schedule: Q01DX001 (ip), vehicle: saline with Tween-80): 102 % of control

CC(=O)Nc1ccc(/C=N/NC(N)=S)cc1
T/C (endpoint: median tumor weight change, dose: 31.25 mg/kg/injection, schedule: Q01DX001 (ip), vehicle: Klucel (hydroxypropylcellulose) (HPC)): 96 % of control | T/C (endpoint: median tumor weight change, dose: 62.5 mg/kg/injection, schedule: Q01DX001 (ip), vehicle: Klucel (hydroxypropylcellulose) (HPC)): 84 % of control | T/C (endpoint: median tumor weight change, dose: 125.0 mg/kg/injection, schedule: Q01DX001 (ip), vehicle: Klucel (hydroxypropylcellulose) (HPC)): 103 % of control | T/C (endpoint: median tumor weight change, dose: 250.0 mg/kg/injection, schedule: Q01DX001 (ip), vehicle: Klucel (hydroxypropylcellulose) (HPC)): 48 % of control | T/C (endpoint: median tumor weight change, dose: 500.0 mg/kg/injection, schedule: Q01DX001 (ip), vehicle: Klucel (hydroxypropylcellulose) (HPC)): 99 % of control

COc1ccc(OC)c(Cc2cnc3nc(N)nc(N)c3c2C)c1
T/C (endpoint: median tumor weight change, dose: 31.25 mg/kg/injection, schedule: Q01DX001 (ip), vehicle: other): 47 % of control | T/C (endpoint: median tumor weight change, dose: 62.5 mg/kg/injection, schedule: Q01DX001 (ip), vehicle: other): 64 % of control

CC1(CO)C(O)CCC2(C)C1CCC1CC3CC12CCC3(O)CO (stereo unspecified)
T/C [1]: 39 % of control | T/C (endpoint: median tumor weight (est.), dose: 18.75 mg/kg/injection, schedule: Q07DX005 (ip), vehicle: saline with Tween-80): 53 % of control | T/C [3]: 55 % of control | T/C (endpoint: median tumor weight (est.), dose: 37.5 mg/kg/injection, schedule: Q07DX005 (ip), vehicle: saline with Tween-80): 85 % of control | T/C [4]: 60 % of control | T/C [12]: 58 % of control | T/C (endpoint: median tumor weight (est.), dose: 200.0 mg/kg/injection, schedule: Q07DX005 (ip), vehicle: saline with Tween-80): 92 % of control | T/C (endpoint: median tumor weight (est.), dose: 400.0 mg/kg/injection, schedule: Q07DX005 (ip), vehicle: saline with Tween-80): 13 % of control

CCCCCCCCCCCCSC1=C(Cl)C(=O)C(OC)=C(OC)C1=O
T/C [3]: 89 % of control | T/C [12]: 70 % of control

O=C1CN(CN2CCOCC2)C(=O)CN1CN1CCOCC1
T/C [2]: 170 % of control | T/C [5]: 153 % of control | T/C (endpoint: median tumor weight (est.), dose: 200.0 mg/kg/injection, schedule: Q07DX005 (ip), vehicle: saline): 100 % of control

CC[C@H]1CN2CCc3cc(OC)c(OC)cc3[C@@H]2C[C@@H]1C[C@H]1NCCc2cc(O)c(OC)cc21
T/C (endpoint: median tumor weight (est.), dose: 2.0 mg/kg/injection, schedule: Q07DX005 (ip), vehicle: saline): 67 % of control | T/C (endpoint: median tumor weight (est.), dose: 4.0 mg/kg/injection, schedule: Q07DX005 (ip), vehicle: saline): 95 % of control | T/C (endpoint: median tumor weight (est.), dose: 8.0 mg/kg/injection, schedule: Q07DX005 (ip), vehicle: saline): 92 % of control | T/C (endpoint: median tumor weight (est.), dose: 16.0 mg/kg/injection, schedule: Q07DX005 (ip), vehicle: saline): 47 % of control

CC1=CC(=NN=c2cc(C)n([O-])c(C)c2)C=C(C)[N+]1=O
T/C (endpoint: median tumor weight change, dose: 100.0 mg/kg/injection, schedule: Q01DX001 (ip), vehicle: suspension in saline): 76 % of control | T/C [7]: 118 % of control | T/C [10]: 55 % of control | T/C (endpoint: median tumor weight change, dose: 200.0 mg/kg/injection, schedule: Q01DX001 (ip), vehicle: suspension in saline): 85 % of control | T/C [11]: 117 % of control | T/C (endpoint: median tumor weight change, dose: 400.0 mg/kg/injection, schedule: Q01DX001 (ip), vehicle: suspension in saline): 80 % of control | T/C [9]: 94 % of control | T/C (endpoint: median tumor weight change, dose: 500.0 mg/kg/injection, schedule: Q01DX001 (ip), vehicle: saline): 100 % of control | T/C (endpoint: median tumor weight change, dose: 800.0 mg/kg/injection, schedule: Q01DX001 (ip), vehicle: suspension in saline): 40 % of control | T/C (endpoint: median tumor weight change, dose: 1000.0 mg/kg/injection, schedule: Q01DX001 (ip), vehicle: saline): 17 % of control

CCCCNC(C)[C@]1(O)Cc2c(O)c3c(c(O)c2[C@@H](OC2CC(N)C(O)C(C)O2)C1)C(=O)c1c(OC)cccc1C3=O (stereo partly specified)
T/C [13]: 89 % of control | T/C [14]: 74 % of control | T/C (endpoint: median tumor weight (est.), dose: 6.0 mg/kg/injection, schedule: Q07DX005 (ip), vehicle: water): 47 % of control

O=C1C(NCC(O)CO)=C(N2CC2)C(=O)C(NCC(O)CO)=C1N1CC1 (stereo unspecified)
T/C [6]: 123 % of control | T/C (endpoint: median tumor weight change, dose: 4.0 mg/kg/injection, schedule: Q01DX001 (ip), vehicle: suspension in saline): 55 % of control | T/C (endpoint: median tumor weight change, dose: 8.0 mg/kg/injection, schedule: Q01DX001 (ip), vehicle: saline): 19 % of control | T/C (endpoint: median tumor weight change, dose: 8.0 mg/kg/injection, schedule: Q01DX001 (ip), vehicle: suspension in saline): 35 % of control (2×) and 55 % of control | T/C (endpoint: median tumor weight change, dose: 16.0 mg/kg/injection, schedule: Q01DX001 (ip), vehicle: saline): 3 % of control

COc1cccc2c1C(=O)c1c(O)c3c(c(O)c1C2=O)C[C@@](O)(C(C)=O)C[C@@H]3OC1CC(N(C)C)C(O)C(C)O1 (stereo partly specified)
T/C (endpoint: mean tumor weight, dose: 1.0 mg/kg/injection, schedule: Q07DX006 (ip), vehicle: water): 197 % of control | T/C (endpoint: mean tumor weight, dose: 2.0 mg/kg/injection, schedule: Q07DX006 (ip), vehicle: water): 73 % of control | T/C (endpoint: mean tumor weight, dose: 4.0 mg/kg/injection, schedule: Q07DX006 (ip), vehicle: water): 30 % of control | T/C (endpoint: mean tumor weight, dose: 8.0 mg/kg/injection, schedule: Q07DX006 (ip), vehicle: water): 1 % of control | T/C (endpoint: median tumor weight (est.), dose: 1.0 mg/kg/injection, schedule: Q07DX005 (ip), vehicle: water): 108 % of control | T/C (endpoint: median tumor weight (est.), dose: 2.0 mg/kg/injection, schedule: Q07DX005 (ip), vehicle: water): 63 % of control | T/C [14]: 45 % of control | T/C (endpoint: median tumor weight (est.), dose: 8.0 mg/kg/injection, schedule: Q07DX005 (ip), vehicle: water): 42 % of control

COc1cccc2c1C(=O)c1c(O)c3c(c(O)c1C2=O)C[C@@](O)(C(=O)CO)C[C@@H]3OC1CC(N(C)C)C(O)C(C)O1 (stereo partly specified)
T/C [13]: 88 % of control
